Reference: paper PMC8094182, “8-Substituted Triazolobenzodiazepines: In Vitro and In Vivo Pharmacology in Relation to Structural Docking at the α1 Subunit-Containing GABAA Receptor” (Frontiers in Pharmacology, 2021)

Assays:
[1] = biological target: T1, rat α1β3γ2 GABAA receptor (α1GABAA) (Rattus norvegicus, UniProt P18508+P62813); test: [3H]flunitrazepam displacement, HEK […] membranes, filtration; type: binding; conditions: read-out: α1
T1 construct: gene Gabra1; Full-length subunits co-expressed; pentamer; with Gamma-aminobutyric acid receptor subunit beta-3
T1 sequence (P62813 28-455): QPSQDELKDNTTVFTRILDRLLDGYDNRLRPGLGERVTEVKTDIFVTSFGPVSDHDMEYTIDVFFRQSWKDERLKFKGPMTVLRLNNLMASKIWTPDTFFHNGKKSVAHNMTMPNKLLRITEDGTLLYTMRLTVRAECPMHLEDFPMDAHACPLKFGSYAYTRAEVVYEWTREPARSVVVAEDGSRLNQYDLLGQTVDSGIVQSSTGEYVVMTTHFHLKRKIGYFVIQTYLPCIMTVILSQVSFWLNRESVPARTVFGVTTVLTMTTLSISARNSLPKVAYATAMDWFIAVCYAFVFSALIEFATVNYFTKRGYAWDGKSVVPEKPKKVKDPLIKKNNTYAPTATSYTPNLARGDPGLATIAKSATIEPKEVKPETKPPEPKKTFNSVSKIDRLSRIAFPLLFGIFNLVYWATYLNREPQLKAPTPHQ
T1 sequence (P18508 39-466): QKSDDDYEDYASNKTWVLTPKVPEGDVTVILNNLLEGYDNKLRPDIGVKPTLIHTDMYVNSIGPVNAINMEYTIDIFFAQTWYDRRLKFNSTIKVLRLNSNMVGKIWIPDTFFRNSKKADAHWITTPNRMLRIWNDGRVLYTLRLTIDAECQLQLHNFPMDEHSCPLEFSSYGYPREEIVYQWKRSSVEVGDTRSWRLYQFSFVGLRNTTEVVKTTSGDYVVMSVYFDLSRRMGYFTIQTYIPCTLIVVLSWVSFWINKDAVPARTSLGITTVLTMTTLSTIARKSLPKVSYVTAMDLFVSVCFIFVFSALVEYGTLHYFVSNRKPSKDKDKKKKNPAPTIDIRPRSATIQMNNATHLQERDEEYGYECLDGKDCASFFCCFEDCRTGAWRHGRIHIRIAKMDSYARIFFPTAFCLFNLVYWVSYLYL
T1 sequence (P63079 26-473 partner): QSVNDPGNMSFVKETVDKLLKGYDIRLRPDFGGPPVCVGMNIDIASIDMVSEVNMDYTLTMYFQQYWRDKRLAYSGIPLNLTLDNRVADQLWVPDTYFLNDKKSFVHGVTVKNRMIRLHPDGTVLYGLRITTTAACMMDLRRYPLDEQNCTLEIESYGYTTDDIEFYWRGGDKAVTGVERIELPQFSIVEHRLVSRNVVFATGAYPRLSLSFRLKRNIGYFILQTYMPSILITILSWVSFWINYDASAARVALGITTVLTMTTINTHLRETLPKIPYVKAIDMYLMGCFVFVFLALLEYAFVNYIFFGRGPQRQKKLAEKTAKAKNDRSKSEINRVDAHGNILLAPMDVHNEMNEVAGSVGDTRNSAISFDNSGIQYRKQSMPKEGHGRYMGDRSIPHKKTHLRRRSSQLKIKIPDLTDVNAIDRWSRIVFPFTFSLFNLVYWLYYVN

[2] = biological target: T2, rat α2β3γ2 GABAA receptor (α2GABAA) (Rattus norvegicus, UniProt P18508+P23576); test: two-electrode voltage clamp, Xenopus oocytes, potentiation of GABA EC3 current; type: cell-based; conditions: read-out: α2
T2 construct: gene Gabra2; Full-length subunits co-expressed; pentamer; with Gamma-aminobutyric acid receptor subunit beta-3
T2 sequence (P23576 29-451): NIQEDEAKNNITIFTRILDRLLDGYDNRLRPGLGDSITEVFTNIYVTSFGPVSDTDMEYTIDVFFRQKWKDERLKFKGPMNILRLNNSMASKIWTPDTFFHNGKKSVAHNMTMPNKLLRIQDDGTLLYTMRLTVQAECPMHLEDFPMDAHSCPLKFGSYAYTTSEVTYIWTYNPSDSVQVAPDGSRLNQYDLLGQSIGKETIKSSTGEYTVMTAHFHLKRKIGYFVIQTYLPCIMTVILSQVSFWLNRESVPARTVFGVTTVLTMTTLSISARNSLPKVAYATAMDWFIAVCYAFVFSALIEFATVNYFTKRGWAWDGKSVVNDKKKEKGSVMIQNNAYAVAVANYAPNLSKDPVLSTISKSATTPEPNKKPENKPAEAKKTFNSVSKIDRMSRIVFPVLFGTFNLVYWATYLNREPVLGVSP
T2 sequence (P18508 39-466): as the sequence (P18508 39-466) above
T2 sequence (P63079 26-473 partner): as the sequence (P63079 26-473 partner) above
Source text: two-electrode voltage clamp, Xenopus oocytes, potentiation of GABA EC3 current on rat α2β3γ2 GABAA receptor (α2GABAA)

[3] = biological target: T2, rat α2β3γ2 GABAA receptor (α2GABAA); test: [3H]flunitrazepam displacement, HEK […] membranes, filtration; type: binding; conditions: read-out: α2
[4] = biological target: T3, rat α5β3γ2 GABAA receptor (α5GABAA) (Rattus norvegicus, UniProt P18508+P19969); test: as above; type: binding; conditions: read-out: α5
T3 construct: gene Gabra5; Full-length subunits co-expressed; pentamer; with Gamma-aminobutyric acid receptor subunit beta-3
T3 sequence (P19969 26-464): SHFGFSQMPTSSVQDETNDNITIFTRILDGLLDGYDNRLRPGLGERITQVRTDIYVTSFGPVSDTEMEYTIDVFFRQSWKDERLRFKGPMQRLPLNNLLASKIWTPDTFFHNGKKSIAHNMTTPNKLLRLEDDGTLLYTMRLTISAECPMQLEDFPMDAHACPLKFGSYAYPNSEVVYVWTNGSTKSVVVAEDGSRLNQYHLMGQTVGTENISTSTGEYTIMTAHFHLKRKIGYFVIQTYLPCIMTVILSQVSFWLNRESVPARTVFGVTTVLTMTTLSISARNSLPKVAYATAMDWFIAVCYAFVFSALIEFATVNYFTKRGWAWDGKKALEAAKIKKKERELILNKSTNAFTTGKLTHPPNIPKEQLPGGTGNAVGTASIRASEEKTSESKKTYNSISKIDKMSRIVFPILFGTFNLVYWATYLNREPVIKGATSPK
T3 sequence (P18508 39-466): as the sequence (P18508 39-466) above
T3 sequence (P63079 26-473 partner): as the sequence (P63079 26-473 partner) above

[5] = biological target: T4, rat α3β3γ2 GABAA receptor (α3GABAA) (Rattus norvegicus, UniProt P18508+P20236); test: two-electrode voltage clamp, Xenopus oocytes, potentiation of GABA EC3 current; type: cell-based; conditions: read-out: α3
T4 construct: gene Gabra3; Full-length subunits co-expressed; pentamer; with Gamma-aminobutyric acid receptor subunit beta-3
T4 sequence (P20236 29-493): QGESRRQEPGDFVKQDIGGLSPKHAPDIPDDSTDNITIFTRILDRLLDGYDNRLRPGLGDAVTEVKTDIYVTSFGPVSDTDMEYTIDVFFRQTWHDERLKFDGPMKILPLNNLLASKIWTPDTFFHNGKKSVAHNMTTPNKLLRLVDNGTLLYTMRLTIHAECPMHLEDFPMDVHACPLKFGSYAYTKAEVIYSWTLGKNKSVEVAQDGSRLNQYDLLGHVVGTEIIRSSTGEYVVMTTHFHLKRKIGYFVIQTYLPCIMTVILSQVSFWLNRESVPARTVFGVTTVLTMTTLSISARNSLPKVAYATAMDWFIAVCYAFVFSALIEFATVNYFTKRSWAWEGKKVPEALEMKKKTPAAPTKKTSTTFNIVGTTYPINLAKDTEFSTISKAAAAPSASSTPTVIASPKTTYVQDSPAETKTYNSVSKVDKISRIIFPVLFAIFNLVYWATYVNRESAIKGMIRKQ
T4 sequence (P18508 39-466): as the sequence (P18508 39-466) above
T4 sequence (P63079 26-473 partner): as the sequence (P63079 26-473 partner) above
Source text: two-electrode voltage clamp, Xenopus oocytes, potentiation of GABA EC3 current on rat α3β3γ2 GABAA receptor (α3GABAA)

[6] = biological target: T1, rat α1β3γ2 GABAA receptor (α1GABAA); test: as above; type: cell-based; conditions: read-out: α1
Source text: two-electrode voltage clamp, Xenopus oocytes, potentiation of GABA EC3 current on rat α1β3γ2 GABAA receptor (α1GABAA)

[7] = biological target: T4, rat α3β3γ2 GABAA receptor (α3GABAA); test: [3H]flunitrazepam displacement, HEK […] membranes, filtration; type: binding; conditions: read-out: α3
[8] = biological target: T3, rat α5β3γ2 GABAA receptor (α5GABAA); test: two-electrode voltage clamp, Xenopus oocytes, potentiation of GABA EC3 current; type: cell-based; conditions: read-out: α5
Source text: two-electrode voltage clamp, Xenopus oocytes, potentiation of GABA EC3 current on rat α5β3γ2 GABAA receptor (α5GABAA)

C#Cc1ccc2c(c1)C(c1ccccc1Cl)=NCc1nnc(C)n1-2 [XLi-JY-DMH, 6-(2-chlorophenyl)-8-ethynyl-1-methyl-4H-benzo [f][1,2,4]triazolo[4,3-a][1,4]diazepine]
Ki [1]: 7.7 ± 5.5 nM
EC50 [2]: 20.7 nM
Ki [3]: 7.2 ± 3 nM
Ki [4]: 3.8 ± 1 nM
EC50 [5]: 47 nM
EC50 [6]: 35.2 nM
Ki [7]: 4.2 ± 1.6 nM
EC50 [8]: 14.9 nM
